Data: patent US12606541B2, “PPARg modulators and methods of use” (Eisai R&D Management Co., Ltd., priority 2020, dated 2026)

Target: T1, His6-TEV-PPARγ-(234-505) (Homo sapiens, UniProt P37231)
T1 construct: The His6-TEV-PPARγ-(234-505) protein for assay was expressed and purified; TEV cleavage site (N); made in house
T1 sequence (P37231 234-505): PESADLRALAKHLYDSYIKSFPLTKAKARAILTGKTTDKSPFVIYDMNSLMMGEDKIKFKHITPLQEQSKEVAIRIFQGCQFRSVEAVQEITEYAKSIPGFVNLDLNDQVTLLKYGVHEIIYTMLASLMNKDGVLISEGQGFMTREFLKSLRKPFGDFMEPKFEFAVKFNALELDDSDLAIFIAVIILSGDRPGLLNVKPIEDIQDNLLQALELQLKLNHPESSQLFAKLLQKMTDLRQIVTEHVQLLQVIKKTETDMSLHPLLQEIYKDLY
Assay: TR-FRET Assay to Measure Co-R Peptide Recruitment to PPARγ
Type: biochemical
Conditions: Co-R peptide recruitment to PPARγ; read-out: TR-FRET AC50
Procedure, shortened: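 Corepressor recruitment is measured by adding terbium-labeled anti-His antibody and FITC SMRT-ID2 peptide, at 5 and 200 nM final, after a 20-minute room-temperature protein–compound incubation. After one further hour, signal is converted to percent response between DMSO and 500 nM T0070907 wells.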

| AC50 [nM] | SMILES |
| --- | --- |
| > 1000 | Cn1cc(CNC(=O)C2CCN(C(=O)c3cc(-c4ccncc4)[nH]n3)CC2)cn1 [N-[(1-methyl-1H-pyrazol-4-yl)methyl]-1-[5-(pyridin-4-yl)-1H-pyrazole-3-carbonyl]piperidine-4-carboxamide] |
| > 1000 | COc1cc(-c2cc(C(=O)N3CCC(C(=O)NCc4ccn(C)n4)CC3)n[nH]2)c(Cl)cn1 [1-[5-(5-chloro-2-methoxypyridin-4-yl)-1H-pyrazole-3-carbonyl]-N-[(1-methyl-1H-pyrazol-3-yl)methyl]piperidine-4-carboxamide] |
| > 1000 | COc1cc(-c2cc(C(=O)N3CC[C@H](C(=O)NC4CCS(=N)(=O)CC4)CC34CC4)n[nH]2)c(F)cn1 (some centres unmarked) |
| > 1000 | COc1cc(-c2cc(C(=O)N3CCC(C(=O)NCC4OCC4(C)C)CC3)n[nH]2)c(Cl)cn1 (centres unmarked) [1-[5-(5-chloro-2-methoxypyridin-4-yl)-1H-pyrazole-3-carbonyl]-N-[(3,3-dimethyloxetan-2-yl)methyl]piperidine-4-carboxamide] |
| > 1000 | Cc1cc(CNC(=O)C2CCN(C(=O)c3cc(-c4ccncc4)[nH]n3)CC2)cnc1C [N-[(5,6-dimethylpyridin-3-yl)methyl]-1-[5-(pyridin-4-yl)-1H-pyrazole-3-carbonyl]piperidine-4-carboxamide] |
| > 1000 | O=C(NC1CC1)C1CCCN(C(=O)c2cc(-c3ccncc3)[nH]n2)C1 (centres unmarked) [N-cyclopropyl-1-[5-(pyridin-4-yl)-1H-pyrazole-3-carbonyl]piperidine-3-carboxamide] |
| > 1000 | COc1cc(-c2cc(C(=O)N3CCC(C(=O)Nc4cnc(C)cn4)CC3)n[nH]2)c(Cl)cn1 [1-[5-(5-chloro-2-methoxypyridin-4-yl)-1H-pyrazole-3-carbonyl]-N-(5-methylpyrazin-2-yl)piperidine-4-carboxamide] |
| > 1000 | COc1cc(-c2cc(C(=O)N3CCC[C@@H](C(=O)NCc4cccc(Cl)c4)C3)n[nH]2)c(F)cn1 [(3R)—N-[(3-chlorophenyl)methyl]-1-[5-(5-fluoro-2-methoxypyridin-4-yl)-1H-pyrazole-3-carbonyl]piperidine-3-carboxamide] |
| > 1000 | COc1cc(F)c(NC(=O)C2CCN(C(=O)c3cc(-c4cc(OC)ncc4Cl)[nH]n3)CC2)c(F)c1 [1-[5-(5-chloro-2-methoxypyridin-4-yl)-1H-pyrazole-3-carbonyl]-N-(2,6-difluoro-4-methoxyphenyl)piperidine-4-carboxamide] |
| > 1000 | Cc1cnccc1NC(=O)C1CCN(C(=O)c2cc(-c3ccncc3)[nH]n2)CC1 [N-(3-methylpyridin-4-yl)-1-[5-(pyridin-4-yl)-1H-pyrazole-3-carbonyl]piperidine-4-carboxamide] |
| > 1000 | O=C(NCc1ccccc1Cl)C1CCN(C(=O)c2cc(-c3ccncc3)[nH]n2)CC1 [N-[(2-chlorophenyl)methyl]-1-[5-(pyridin-4-yl)-1H-pyrazole-3-carbonyl]piperidine-4-carboxamide] |
| > 1000 | O=C(Nc1ccc(F)cn1)C1CCN(C(=O)c2cc(-c3ccncc3)[nH]n2)CC1 [N-(5-fluoropyridin-2-yl)-1-[5-(pyridin-4-yl)-1H-pyrazole-3-carbonyl]piperidine-4-carboxamide] |
| > 1000 | CCc1csc(CNC(=O)C2CCN(C(=O)c3cc(-c4ccncc4)[nH]n3)CC2)n1 [N-[(4-ethyl-1,3-thiazol-2-yl)methyl]-1-[5-(pyridin-4-yl)-1H-pyrazole-3-carbonyl]piperidine-4-carboxamide] |
| > 1000 | O=C(NCCN1CCCC1)C1CCN(C(=O)c2cc(-c3ccncc3)[nH]n2)CC1 [1-[5-(pyridin-4-yl)-1H-pyrazole-3-carbonyl]-N-[2-(pyrrolidin-1-yl)ethyl]piperidine-4-carboxamide] |
| > 1000 | COc1cc(-c2cc(C(=O)N3CCC(C(=O)N[C@H]4CC[C@@]5(CCO5)CC4)CC34CC4)n[nH]2)c(F)cn1 (single isomer, unassigned) |
| > 1000 | COc1cc(-c2cc(C(=O)N3CCC(C(=O)NC(C)c4cnn(C)c4)CC3)n[nH]2)c(Cl)cn1 (centres unmarked) |
| > 1000 | COc1ccc(NC(=O)C2CCN(C(=O)c3cc(-c4ccncc4)[nH]n3)CC2)c(C)c1 [N-(4-methoxy-2-methylphenyl)-1-[5-(pyridin-4-yl)-1H-pyrazole-3-carbonyl]piperidine-4-carboxamide] |
| > 1000 | Cc1cccc(CNC(=O)C2CCCN(C(=O)c3cc(-c4ccncc4)[nH]n3)C2)c1 (centres unmarked) [N-[(3-methylphenyl)methyl]-1-[5-(pyridin-4-yl)-1H-pyrazole-3-carbonyl]piperidine-3-carboxamide] |
| > 1000 | COc1cc(-c2cc(C(=O)N3CCC(C(=O)NCc4cnccn4)CC3)n[nH]2)c(Cl)cn1 [1-[5-(5-chloro-2-methoxypyridin-4-yl)-1H-pyrazole-3-carbonyl]-N-[(pyrazin-2-yl)methyl]piperidine-4-carboxamide] |
| > 1000 | CCOCCNC(=O)C1CCN(C(=O)c2cc(-c3ccncc3)[nH]n2)CC1 [N-(2-ethoxyethyl)-1-[5-(pyridin-4-yl)-1H-pyrazole-3-carbonyl]piperidine-4-carboxamide] |
| > 1000 | Cc1ccc(NC(=O)C2CCN(C(=O)c3cc(-c4ccncc4)[nH]n3)CC2)cc1Cl [N-(3-chloro-4-methylphenyl)-1-[5-(pyridin-4-yl)-1H-pyrazole-3-carbonyl]piperidine-4-carboxamide] |
| > 1000 | COc1cc(-c2cc(C(=O)N3CCC(C(=O)Nc4nc5ccccc5n4C)CC3)n[nH]2)c(Cl)cn1 [1-[5-(5-chloro-2-methoxypyridin-4-yl)-1H-pyrazole-3-carbonyl]-N-(1-methyl-1H-1,3-benzodiazol-2-yl)piperidine-4-carboxamide] |
| > 1000 | CC1CCC(NC(=O)C2CCN(C(=O)c3cc(-c4ccncc4C#N)[nH]n3)CC2)CC1 (centres unmarked) [1-[5-(3-cyanopyridin-4-yl)-1H-pyrazole-3-carbonyl]-N-(4-methylcyclohexyl)piperidine-4-carboxamide] |
| > 1000 | COc1cc(-c2cc(C(=O)N3CCC(C(=O)NCc4cnc(C)cn4)CC3)n[nH]2)c(Cl)cn1 [1-[5-(5-chloro-2-methoxypyridin-4-yl)-1H-pyrazole-3-carbonyl]-N-[(5-methylpyrazin-2-yl)methyl]piperidine-4-carboxamide] |
| > 1000 | CN1CCC(NC(=O)C2CCN(C(=O)c3cc(-c4ccncc4)[nH]n3)CC2)CC1 [N-(1-methylpiperidin-4-yl)-1-[5-(pyridin-4-yl)-1H-pyrazole-3-carbonyl]piperidine-4-carboxamide] |
| > 1000 | C[C@H]1CC[C@@H](NC(=O)C2CCN(C(=O)c3cc(-c4ccncc4)[nH]n3)CC2)CC1 |
| > 1000 | COc1cc(-c2cc(C(=O)N3CCC(C(=O)NCc4ccc(=O)[nH]c4)CC3)n[nH]2)c(Cl)cn1 [1-[5-(5-chloro-2-methoxypyridin-4-yl)-1H-pyrazole-3-carbonyl]-N-[(6-oxo-1,6-dihydropyridin-3-yl)methyl]piperidine-4-carboxamide] |
| > 1000 | COc1cc(-c2cc(C(=O)N3CCC(C(=O)NCC4(C)CCOC4)CC3)n[nH]2)c(Cl)cn1 (centres unmarked) [1-[5-(5-chloro-2-methoxypyridin-4-yl)-1H-pyrazole-3-carbonyl]-N-[(3-methyloxolan-3-yl)methyl]piperidine-4-carboxamide] |
| > 1000 | O=C(NCc1ccncc1)C1CCN(C(=O)c2cc(-c3ccncc3)[nH]n2)CC1 [1-[5-(pyridin-4-yl)-1H-pyrazole-3-carbonyl]-N-[(pyridin-4-yl)methyl]piperidine-4-carboxamide] |
